Read-outs that look alike come from different tables or passages of the source.
Assays:
[1] = tested on: Staphylococcus aureus ATCC25923; test: Antimicrobial MIC, agar dilution
[2] = tested on: Streptococcus pyogenes ATCC19615; test: Antimicrobial MIC, agar dilution
[3] = tested on: carrageenan induced paw edema; test: Anti-inflammatory activity: acute carrageenan induced paw edema in rats; assay type: in vivo, Wister rats; details: at 4 h effect; 10 mg kg^−1 indomethacin mol equivalent
Method in brief: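 Wistar rats (120–150 g, n=6/group) received subplantar 1% carrageenan in the right hind paw, and DMSO-vehicle animals served as controls. Results are given as % inhibition of edema thickness versus control.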

[4] = tested on: Candida albicans (local isolate); test: Antimicrobial MIC, agar dilution; details: Candida albicans, read-out: Minimum inhibitory concentration (MIC)
[5] = tested on: PHA-stimulated splenocytes; test: Proliferative response of PHA-stimulated splenocytes (MTT assay); assay type: cell-based; details: PHA 5 μg/ml, 72 hr; compounds at 5 μM (method says 10 μM); ratio of O.D. versus vehicle control
Method in brief: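 Readout was MTT absorbance (570 nm, reference 690 nm) after 72 h culture at 37° C. Splenocytes at 1×10^6 cells/well received test compound (10 μM final) alone or plus PHA 5 μg/ml as T-cell mitogen. Values are OD ratios of compound over vehicle control (stimulation index).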

gastric mucosa = test: Ulcerogenic liability (ulcer index); assay type: in vivo, albino mice; details: orally, three successive days, 10 mg/kg indomethacin mol equivalent; for Number of animals with ulcer: 6 animals per group; for Ulcer index: sum of the three values
Method in brief: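 Albino mice were fasted 18 h before dosing, and controls got saline with a few drops of Tween 80. Gastric mucosa was checked under a 10× lens for lesions and erosions. The ulcer index combines percentage incidence divided by 10, mean ulcers per stomach and mean severity.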

[6] = tested on: Pseudomonas aeruginosa ATCC27853; test: Antimicrobial MIC, agar dilution
[7] = ATCC25923, 18 h, read-out: Minimum inhibitory concentration (MIC)
[8] = ATCC25923, read-out: Minimum inhibitory concentration (MIC)
[9] = ATCC19615, 18 h, read-out: Minimum inhibitory concentration (MIC)
[10] = ATCC19615, read-out: Minimum inhibitory concentration (MIC)
[11] = ATCC27853, 18 h, read-out: Minimum inhibitory concentration (MIC)
[12] = ATCC27853, read-out: Minimum inhibitory concentration (MIC)

Compound	MIC [1, 7] [µg/mL]	MIC [1, 8] [µM]	MIC [2, 9] [µg/mL]	MIC [2, 10] [µM]	Potency (% inhibition of edema relative to that of indomethacin reference standard) [3]	MIC ([4]; 18 h) [µg/mL]	MIC [4] [µM]	Stimulation Index (average ± SD) [5]	% Incidence of ulcer divided by 10 (gastric mucosa)	Average of ulcer number (gastric mucosa)	Average severity of ulcer (gastric mucosa)	Number of animals with ulcer (gastric mucosa)	Ulcer index (gastric mucosa)	MIC [6, 11] [µg/mL]	MIC [6, 12] [µM]
COc1cc(/C=C/C(=O)CC(=O)/C=C/c2ccc(OC(=O)C(C)NC(=O)OCc3ccccc3)c(OC)c2)ccc1OC(=O)C(C)NC(=O)OCc1ccccc1 (racemic) [Cbz-DL-Ala-Cur, ((1E,6E)-3,5-dioxohepta-1,6-diene-1,7-diyl)bis(2-methoxy-4,1-phenylene) bis(2-(((benzyloxy)carbonyl)amino)propanoate)]	0.5	0.642	0.125	0.161	115	0.5	0.642	1.18 ± 0.09	3.33	0.67	0.67	2/6	4.67	0.25	0.321
COc1cc(/C=C/C(=O)CC(=O)/C=C/c2ccc(OC(=O)[C@H](N)CCSC)c(OC)c2)ccc1OC(=O)[C@H](N)CCSC.Cl.Cl [HCl-D-Met-Cur, (2R,2′R)-1,1′-((((1E,6E)-3,5-dioxohepta-1,6-diene-1,7-diyl)bis(2-methoxy-4,1-phenylene))bis(oxy))bis(4-(methylthio)-1-oxobutan-2-aminium) chloride]	0.125	0.178	0.25	0.355	113	1	1.42	1.01 ± 0.15	0	0	0	0/6	0	1	1.42
